# Results: patent publication US20260224566A1, “Obicetrapib and Ezetimibe Combination Treatment and Fixed Dose Pharmaceutical Compositions” (NewAmsterdam Pharma B.V., priority 2023, published 2026)
# What was measured:
# CETP [1] = molecular target: T1, CETP (Homo sapiens, UniProt P11597); experiment: Example 13: CETP activity and mass in ApoE*3-Leiden.CETP mice; type: in vivo, mouse
# T1 construct: from tissue; host or cells: female ApoE*3-Leiden.CETP transgenic mice dosed in vivo
# T1 sequence (P11597 18-493): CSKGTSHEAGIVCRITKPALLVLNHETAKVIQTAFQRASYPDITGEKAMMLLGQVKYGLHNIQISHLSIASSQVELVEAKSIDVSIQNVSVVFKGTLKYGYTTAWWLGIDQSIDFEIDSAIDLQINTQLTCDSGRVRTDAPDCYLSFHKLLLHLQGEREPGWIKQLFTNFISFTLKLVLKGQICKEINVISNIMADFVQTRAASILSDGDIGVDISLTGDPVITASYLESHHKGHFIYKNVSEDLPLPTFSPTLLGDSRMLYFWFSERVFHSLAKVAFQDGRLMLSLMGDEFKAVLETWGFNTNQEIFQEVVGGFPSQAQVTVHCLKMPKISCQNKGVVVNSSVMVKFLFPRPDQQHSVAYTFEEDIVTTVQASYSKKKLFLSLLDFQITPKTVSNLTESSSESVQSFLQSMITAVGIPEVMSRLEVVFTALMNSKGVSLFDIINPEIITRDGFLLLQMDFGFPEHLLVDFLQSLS
# Protocol: (§1) The experimental protocol is illustrated in FIG. 82, with time (t) measured in weeks. Female ApoE*3-Leiden.CETP transgenic mice were fed a Western diet with 0.05% w/w cholesterol (equivalent to daily human intake) with (i) no drug (control), or the same diet containing (ii) obicetrapib alone (2 mg/kg/day), (iii) ezetimibe alone (on average 0.6 mg/kg/day) or (iv) the combination of obicetrapib and ezetimibe.
# CETP [2] = molecular target: T1, CETP; experiment: Example 12: CETP activity and mass in ApoE*3-Leiden.CETP mice; type: in vivo, mouse
# Protocol: To further elucidate the effects of the combination treatment, further studies were carried out using a standard human CETP transgenic knock-in mouse. As can be inferred from the experimental results reported herein, Obicetrapib alone and the combination with ezetimibe reduce non-HDL-C levels by increased VLDL lipolysis, increased VLDL clearance and elevated LDL receptor levels accompanied by an enhanced fecal bile acid and neutral sterol excretion.
# as §1, with “71,” for “82,”, “(1” for “(on average 0.6”, “ezetimibe. In the experiment, the effects of the treatments on, amongst other things, plasma blood lipids and fecal bile acids and sterols were determined.” for “ezetimibe.”
# [3] = system: critical physiological systems; conditions: rats, doses up to 300 mg/kg; cited from earlier work
smiles,measurement,setting,value
"CCOC(=O)N1c2ccc(C(F)(F)F)cc2[C@@H](N(Cc2cc(C(F)(F)F)cc(C(F)(F)F)c2)c2ncc(OCCCC(=O)O)cn2)C[C@H]1CC [obicetrapib, {4-[(2-{[3,5-bis(trifluoromethyl)benzyl] [(2R,4S)-1-(ethoxycarbonyl)-2-ethyl-6-(trifluoromethyl)-1,2,3,4-tetrahydroquinolin-4-yl]amino}pyrimidin-5-yl)oxy]butanoic acid}]",cetp mass,CETP [1]; FIG. 87B,without statistically significant changes
same,"CETP activity, change","CETP [1]; obicetrapib 2 mg/kg/day, ezetimibe on average 0.6 mg/kg/day in Western diet",−98%
same,cetp mass,CETP [2]; data not shown,does not affect
same,"CETP activity, change","CETP [2]; obicetrapib 2 mg/kg/day, ezetimibe 1 mg/kg/day in Western diet",−99%
same,adverse effect on critical physiological systems,[3],no adverse effect
